23 molecules from PubChem BioAssay (NCI) can be followed below.

The structures appear in SMILES notation.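 Compound exposure: 48 hours, 5 concentrations, 96-well plates. GI50 = concentration required for 50% inhibition of growth. TGI: concentration producing complete growth inhibition.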 A value given as a limit tells only on which side of the number the result lay.

Test systems include SF-539 CNS; SF-268 CNS; RXF 393 renal; EKVX NSCLC; TK-10 renal; SF-295 CNS; HT29 colon; NCI-H23 lung; HOP-62 NSCLC.
Test in all cases: NCI anticancer screen, dose series, 48 h

`CCN(CC)CC(C(=O)Nc1c(C)cccc1C)/C(C)=N/NC(N)=S` (configuration not stated): the TGI in the assay with SF-539 CNS, in the assay on SF-268 CNS, in the assay on RXF 393 renal, in the assay on EKVX NSCLC, in the assay on TK-10 renal and in the assay on SF-295 CNS was more than 100 µM in each case. Moreover, the TGI in the assay on HT29 colon, in the assay with NCI-H23 lung and in the assay with HOP-62 NSCLC was more than 100 µM throughout.
With `CCc1cccc(C(C)C)c1C1C(=O)C(=O)N(c2nc3ccccc3s2)C(=O)C1=O`, the TGI in the assay with SF-539 CNS, in the assay on SF-268 CNS, with RXF 393 renal, in the assay on EKVX NSCLC, with TK-10 renal and with SF-295 CNS was more than 100 µM each time. Moreover, the TGI in the assay on HT29 colon, in the assay on NCI-H23 lung and in the assay on HOP-62 NSCLC was more than 100 µM throughout.
For `Nc1n[nH]c(=O)c2c1c(Br)cn2C1OC(CO)C(O)C1O` (configuration not stated), the TGI is 25.8 µM with SF-539 CNS; 55.4 µM in the assay with SF-268 CNS; 10.3 µM in the assay with RXF 393 renal; 39.5 µM in the assay with EKVX NSCLC; more than 100 µM in the assay on TK-10 renal; more than 90.2 µM in the assay on SF-295 CNS. In addition, the TGI in the assay on HT29 colon is more than 100 µM; with NCI-H23 lung, 25 µM; in the assay with HOP-62 NSCLC it was 98.2 µM.
As to `Cc1cc(N2CCOCC2)nc(N(CCNc2ccnc3cc(Cl)ccc23)Cc2cccs2)n1`, the GI50 in the assay with SF-539 CNS is 1.81 µM; in the assay on SF-268 CNS, 3.27 µM; with RXF 393 renal, 1.74 µM; in the assay on EKVX NSCLC, 2.79 µM; in the assay on TK-10 renal, 2.35 µM; in the assay on SF-295 CNS, 1.58 µM. The values for the GI50 in the assay with NCI-H23 lung and with HOP-62 NSCLC were 3 µM and 2.44 µM, respectively. In addition, the TGI with SF-539 CNS was found to be 3.32 µM; in the assay with SF-268 CNS, 10.6 µM; in the assay on RXF 393 renal, 3.47 µM; with EKVX NSCLC, 44 µM; with TK-10 renal, 6.57 µM; in the assay on SF-295 CNS it was 3.13 µM. The figures for the TGI in the assay on NCI-H23 lung and in the assay with HOP-62 NSCLC were more than 100 µM and 6.52 µM, respectively.
For the molecule `Cc1nc2c(=O)n(C)c(=O)nc-2n(-c2ccc(Cl)cc2)c1C`, the TGI in the assay on SF-539 CNS, with SF-268 CNS, in the assay with EKVX NSCLC, in the assay on TK-10 renal, with SF-295 CNS and in the assay with HT29 colon was more than 100 µM throughout. Further, the TGI in the assay with NCI-H23 lung and with HOP-62 NSCLC was more than 100 µM in each case.
Regarding `O=C1c2ccccc2CC1C1(O)C(=O)Nc2c(Cl)cc(Cl)cc21` (configuration not stated), the TGI in the assay on SF-268 CNS was more than 100 µM; with RXF 393 renal, 85.8 µM; with EKVX NSCLC, more than 100 µM; in the assay with TK-10 renal, more than 100 µM; in the assay on SF-295 CNS, more than 100 µM; with HT29 colon, more than 100 µM. Further, the TGI in the assay on NCI-H23 lung and in the assay on HOP-62 NSCLC was more than 100 µM in each case.
With `COC(=O)c1c(OC(=O)c2ccccc2)noc1CC(=O)OC1C=CCCC1` (configuration not stated), the TGI in the assay on SF-539 CNS, in the assay with SF-268 CNS, in the assay with RXF 393 renal, with TK-10 renal and with HOP-62 NSCLC was more than 100 µM throughout.
As to `CC(=O)OC12CCCCC1C1(CCCC1)NC2=O` (configuration not stated), the TGI with SF-539 CNS, in the assay on SF-268 CNS, in the assay with RXF 393 renal, in the assay with EKVX NSCLC, in the assay on TK-10 renal and with SF-295 CNS was more than 100 µM in each case. Besides, the TGI in the assay on HT29 colon, in the assay with NCI-H23 lung and with HOP-62 NSCLC was more than 100 µM in each case.
With `Cc1ccc(S(=O)(=O)c2ccccn2)cc1`, the TGI in the assay with SF-539 CNS, in the assay with SF-268 CNS, in the assay with RXF 393 renal, in the assay with EKVX NSCLC, with TK-10 renal and with SF-295 CNS was more than 100 µM each time. Further, the TGI in the assay on HT29 colon, with NCI-H23 lung and in the assay with HOP-62 NSCLC was more than 100 µM each time.
For `Cc1nn(C(=O)CC(=O)Nc2ccccc2Cl)c(C)c1N=Nc1ccccc1Cl`, the TGI with SF-539 CNS, with SF-268 CNS, in the assay with RXF 393 renal, in the assay on EKVX NSCLC, in the assay with TK-10 renal and in the assay with SF-295 CNS was more than 100 µM in each case. Also, the TGI in the assay on HT29 colon, with NCI-H23 lung and with HOP-62 NSCLC was more than 100 µM in each case.
For the molecule `O=S(O)CCCSSCCCCSSCCCS(=O)O`, the TGI in the assay with SF-539 CNS, in the assay with SF-268 CNS, with RXF 393 renal, in the assay on EKVX NSCLC, in the assay on TK-10 renal and with SF-295 CNS was more than 100 µM throughout. Moreover, the TGI in the assay on HT29 colon, with NCI-H23 lung and in the assay on HOP-62 NSCLC was more than 100 µM throughout.
As for `CC/C(=C(\c1ccccc1)c1ccc(OCC[N+](C)(C)C)cc1)c1ccccc1`, the TGI was 40.6 µM in the assay on SF-539 CNS; 32.4 µM in the assay on SF-268 CNS; 36.9 µM with RXF 393 renal; 33 µM with EKVX NSCLC; 33.8 µM with SF-295 CNS; 29.6 µM in the assay with HT29 colon. For the same molecule, the TGI in the assay on HOP-62 NSCLC came to 56.5 µM.
In the case of `CCCCCC1C2C(=O)NC(=O)C1C(=O)NC2=O` (configuration not stated), the TGI with SF-539 CNS, in the assay on SF-268 CNS, in the assay with RXF 393 renal, with EKVX NSCLC, with TK-10 renal and in the assay on SF-295 CNS was more than 100 µM throughout. For the same molecule, the TGI in the assay with HT29 colon, in the assay on NCI-H23 lung and in the assay on HOP-62 NSCLC was more than 100 µM throughout.
For `Cc1ccc(S(=O)(=O)NC2(C=O)CCC(C(C)(C)C)CC2)cc1` (configuration not stated), the TGI in the assay with SF-539 CNS is more than 100 µM; in the assay on SF-268 CNS, more than 100 µM; in the assay on RXF 393 renal, more than 100 µM; with EKVX NSCLC it was more than 100 µM; in the assay on TK-10 renal, more than 100 µM; in the assay on SF-295 CNS, 94.9 µM. In addition, the TGI in the assay on HT29 colon was more than 100 µM; in the assay with NCI-H23 lung, 85.6 µM; with HOP-62 NSCLC it was more than 100 µM.
Consider `COc1ccc(/C=C(\NC(=O)c2ccccc2)c2nc3ccccc3[nH]2)cc1`, for which the TGI was more than 100 µM in the assay with SF-539 CNS; more than 100 µM in the assay with SF-268 CNS; more than 100 µM in the assay with EKVX NSCLC; more than 100 µM in the assay on HT29 colon; 56.1 µM in the assay with NCI-H23 lung; more than 100 µM in the assay on HOP-62 NSCLC.
On to `CC(=O)/C=C\C(=O)NNS(=O)(=O)c1ccc(C)cc1`, for which the TGI in the assay with SF-539 CNS, in the assay on SF-268 CNS, in the assay on RXF 393 renal, in the assay on EKVX NSCLC, in the assay on TK-10 renal and with SF-295 CNS was more than 100 µM throughout. Moreover, the TGI in the assay on HT29 colon, in the assay with NCI-H23 lung and in the assay on HOP-62 NSCLC was more than 100 µM each time.
As to `O=C(Nc1cccc(Cl)c1)c1cc2cc(N=Nc3ccc(Br)cc3)ccc2oc1=O`, the TGI with SF-539 CNS, in the assay with SF-268 CNS, in the assay on RXF 393 renal, with EKVX NSCLC, in the assay with TK-10 renal and in the assay with SF-295 CNS was more than 100 µM in each case. Besides, the TGI with HT29 colon was more than 100 µM; with NCI-H23 lung, 64.3 µM; in the assay with HOP-62 NSCLC it was more than 100 µM.
Regarding `O=C(Cc1nc2ccccc2s1)C(=O)Nc1ccccc1C(F)(F)F`, the TGI in the assay on SF-539 CNS, in the assay on SF-268 CNS, with RXF 393 renal, in the assay with EKVX NSCLC, in the assay with TK-10 renal and with SF-295 CNS was more than 100 µM in each case. The TGI in the assay on HT29 colon, in the assay on NCI-H23 lung and in the assay on HOP-62 NSCLC was more than 100 µM each time.
As for `CN(C)CCCn1c2c(c3ccc([N+](=O)[O-])cc3c1=O)C(=O)c1ccccc1-2`, the GI50 with SF-268 CNS is 9.53 µM; in the assay on EKVX NSCLC, 84.9 µM; in the assay on TK-10 renal, 15.3 µM; in the assay with SF-295 CNS, 8.63 µM; with HT29 colon, 3.76 µM; in the assay with NCI-H23 lung, 4.95 µM. Moreover, the GI50 in the assay on HOP-62 NSCLC was 5.67 µM. Further, the TGI with SF-268 CNS was more than 100 µM; in the assay on EKVX NSCLC, more than 100 µM; in the assay with TK-10 renal, 73.7 µM; in the assay on SF-295 CNS it was more than 100 µM; in the assay on HT29 colon, 21.3 µM; with NCI-H23 lung, 24.2 µM. In addition, in the assay with HOP-62 NSCLC, the TGI amounted to 20.8 µM.
Turning to `Cc1cn2cc(-c3ccncc3)nc2s1`, the TGI in the assay with SF-539 CNS, in the assay on SF-268 CNS, in the assay on EKVX NSCLC, in the assay on TK-10 renal, in the assay on SF-295 CNS and in the assay on HT29 colon was more than 100 µM in each case. The TGI in the assay on NCI-H23 lung and with HOP-62 NSCLC was more than 100 µM each time.
As for `O=c1c2ccccc2nc(-c2ccccc2Cl)n1NC1OC(CO)C(O)C(O)C1O` (configuration not stated), the TGI in the assay on SF-539 CNS, with SF-268 CNS, with EKVX NSCLC, in the assay on TK-10 renal, with SF-295 CNS and with HT29 colon was more than 100 µM each time. Moreover, the TGI with NCI-H23 lung and in the assay on HOP-62 NSCLC was more than 100 µM each time.
Turning to `S=C(N/N=C/c1ccccc1)NC1CC(c2ccccc2)Oc2ccccc21` (configuration not stated), the TGI is more than 100 µM in the assay with SF-539 CNS; more than 100 µM with SF-268 CNS; more than 100 µM in the assay on EKVX NSCLC; 87.7 µM in the assay on SF-295 CNS; more than 100 µM in the assay with HT29 colon; more than 100 µM in the assay on NCI-H23 lung.
Turning to `O=[N+]([O-])c1ccc(-c2ccc(C3=Nn4c(nnc4-c4ccc(Cl)cc4)SC3)o2)cc1`, the TGI is more than 100 µM in the assay with SF-539 CNS; more than 100 µM with SF-268 CNS; more than 100 µM with EKVX NSCLC; 53.4 µM with TK-10 renal; more than 82.1 µM in the assay with SF-295 CNS; more than 100 µM in the assay on HT29 colon. Also, the figures for the TGI in the assay on NCI-H23 lung and with HOP-62 NSCLC were more than 85.9 µM and more than 76.3 µM, respectively.
